From the NIST ThermoML archive (doi:10.1021/acs.jced.7b00601)
± gives the expanded uncertainty stated by the source.

Key:
[1] = Crystal; DTA
[2] = Molar enthalpy of transition or fusion; details: Crystal; DSC

Normal melting temperature [1]: 162.00 ± 2.9 °C
Molar enthalpy of transition or fusion [2]: 34.9 ± 0.97 kJ/mol
SMILES: COc1c(N2CCNC(C)C2)c(F)cc2c(=O)c(C(=O)O)cn(C3CC3)c12 (configuration not stated) [gatifloxacin]
